Test results as given in the supplement of paper PMC11208160.

Test: recombinant UMI read abundance after kanamycin selection (control-corrected) (log10(CPM+1)); higher = more efficient recombination; extreme values may be limits of the assay; sequences stand for … in AGTGCAGAGAAAATCGGCCAGTTTTCTCTGCCTGCAGTCCGCATGCCGTGGGACCCCTTGGGTTCTAACCTGTTGCCTAGATTTATGCAGCGGACTGCCTTTCTCCCAAAGTGATAAACCGG…AGGTTGGTTTCACT; site = the 11-nt donor
Outline: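 In a pooled Escherichia coli screen for the IS621 bridge recombinase, donor and donor-binding-loop pairs were each placed with a 12-nt UMI on a plasmid bearing a promoterless kanamycin gene. This library was co-electroporated with a target plasmid encoding a fixed target and T7-inducible recombinase, and cells were plated either on IPTG (0.07 mM) plus kanamycin or without selection, in two replicates each. Recombinant UMIs were PCR-amplified across the donor–target junction and sequenced, and counts were converted to CPM, averaged over replicates, scaled by control-derived factors and reported as log10(CPM+1).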
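Note: IS621 bridge recombinase in Escherichia coli cells against a fixed T5 target plasmid.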

With “GGTCCAACATGGACCGGTTTTCCCGGTAATCCGTATTTGAA (site GGTCCAACTTG)” the “recombinant UMI read abundance (log10)” value was 0.
For “GGTCCAACATGGACCGGTTTTCCCGGTAATCCGTATTTGAA (site GGTCCAACTTT)”, the “recombinant UMI read abundance (log10)” value was 0.0109.
For “GGTCCAACATGGACCGGTTTTCCCGGTAATCCGTATTTGTT (site GGTCCAACTAA)”, the “recombinant UMI read abundance (log10)” value was 0.0107.
For “GGTCCAACATGGACCGGTTTTCCCGGTAATCCGTATTTGTT (site GGTCCAACTCA)”, the “recombinant UMI read abundance (log10)” value was 0.0106.
With “GGTCCAACATGGACCGGTTTTCCCGGTAATCCGTATTTGTT (site GGTCCAACTGA)” the “recombinant UMI read abundance (log10)” value was 0.00734.
In the case of “GGTCCAACATGGACCGGTTTTCCCGGTAATCCGTATTTGTT (site GGTCCAACTTA)”, the “recombinant UMI read abundance (log10)” value is reported as 0.0123.
With “GGTCCGACATGGACCGGTTTTCCCGGTAATCCGTATTTGTA (site GGTCCAACTTA)” the “recombinant UMI read abundance (log10)” value was 0.0275.
For “GGTCCGACATGGACCGGTTTTCCCGGTAATCCGTATTTGTA (site GGTCCCACTTA)”, the “recombinant UMI read abundance (log10)” value was 0.00256.
In the case of “GGTCCGACATGGACCGGTTTTCCCGGTAATCCGTATTTGTA (site GGTCCGACTTA)”, the “recombinant UMI read abundance (log10)” value is reported as 0.0268.
In the case of “GGTCCGACATGGACCGGTTTTCCCGGTAATCCGTATTTGTA (site GGTCCTACTTA)”, the “recombinant UMI read abundance (log10)” value is reported as 0.0182.
With “GGTCCGGCATGGACCGGTTTTCCCGGTAATCCGTATTTGTC (site GGTCCGGCTGA)” the “recombinant UMI read abundance (log10)” value was 0.
In the case of “GGTCCTACATGGACCGGTTTTCCCGGTAATCCGTATTTGTA (site GGTCCAACTTA)”, the “recombinant UMI read abundance (log10)” value is reported as 0.00723.
With “GGTCCTACATGGACCGGTTTTCCCGGTAATCCGTATTTGTA (site GGTCCCACTTA)” the “recombinant UMI read abundance (log10)” value was 0.0198.
With “GGTCCTACATGGACCGGTTTTCCCGGTAATCCGTATTTGTA (site GGTCCGACTTA)” the “recombinant UMI read abundance (log10)” value was 0.0128.
For “GGTCCTACATGGACCGGTTTTCCCGGTAATCCGTATTTGTA (site GGTCCTACTTA)”, the “recombinant UMI read abundance (log10)” value was 0.0187.
In the case of “GGTCCTCCATGGACCGGTTTTCCCGGTAATCCGTATTTGTT (site GGTCCTCCTAA)”, the “recombinant UMI read abundance (log10)” value is reported as 0.025.
With “GGTCGAGCATGGACCGGTTTTCCCGGTAATCCGTATTTGCA (site GATCGAGCTTG)” the “recombinant UMI read abundance (log10)” value was 0.273.
In the case of “GGTCGAGCATGGACCGGTTTTCCCGGTAATCCGTATTTGCA (site GCTCGAGCTTG)”, the “recombinant UMI read abundance (log10)” value is reported as 0.0115.
In the case of “GGTCGAGCATGGACCGGTTTTCCCGGTAATCCGTATTTGCA (site GGTCGAGCTTG)”, the “recombinant UMI read abundance (log10)” value is reported as 1.83.
For “GGTCGAGCATGGACCGGTTTTCCCGGTAATCCGTATTTGCA (site GTTCGAGCTTG)”, the “recombinant UMI read abundance (log10)” value was 0.824.
For “GGTCGCTCATGGACCGGTTTTCCCGGTAATCCGTATTTGCT (site GGTCGCTCTAG)”, the “recombinant UMI read abundance (log10)” value was 0.782.
For “GGTCGGCCATGGACCGGTTTTCCCGGTAATCCGTATTTGAA (site GGTCGGCCTTT)”, the “recombinant UMI read abundance (log10)” value was 0.
In the case of “GGTGAGCCATGGACCGGTTTTCCCGGTAATCCGTATTTGGG (site GGTGAGCCTCC)”, the “recombinant UMI read abundance (log10)” value is reported as 0.0257.
With “GGTGCATCATGGACCGGTTTTCCCGGTAATCCGTATTTGCT (site GGTGCATCTAG)” the “recombinant UMI read abundance (log10)” value was 1.92.
For “GGTGCCCCATGGACCGGTTTTCCCGGTAATCCGTATTTGAC (site GGTGCCCCTGT)”, the “recombinant UMI read abundance (log10)” value was 0.
In the case of “GGTGGAACATGGACCGGTTTTCCCGGTAATCCGTATTTGTT (site AGTGGAACTAA)”, the “recombinant UMI read abundance (log10)” value is reported as 0.371.
For “GGTGGAACATGGACCGGTTTTCCCGGTAATCCGTATTTGTT (site CGTGGAACTAA)”, the “recombinant UMI read abundance (log10)” value was 0.00196.
With “GGTGGAACATGGACCGGTTTTCCCGGTAATCCGTATTTGTT (site GGTGGAACTAA)” the “recombinant UMI read abundance (log10)” value was 0.746.
With “GGTGGAACATGGACCGGTTTTCCCGGTAATCCGTATTTGTT (site TGTGGAACTAA)” the “recombinant UMI read abundance (log10)” value was 0.00382.
In the case of “GGTGTGCCATGGACCGGTTTTCCCGGTAATCCGTATTTGAC (site GGTGTGCCTGT)”, the “recombinant UMI read abundance (log10)” value is reported as 0.
For “GGTTACTCATGGACCGGTTTTCCCGGTAATCCGTATTTGGA (site GGTTACTCTTC)”, the “recombinant UMI read abundance (log10)” value was 1.18.
For “GGTTAGACATGGACCGGTTTTCCCGGTAATCCGTATTTGAG (site AGTTAGACTCT)”, the “recombinant UMI read abundance (log10)” value was 0.498.
In the case of “GGTTAGACATGGACCGGTTTTCCCGGTAATCCGTATTTGAG (site CGTTAGACTCT)”, the “recombinant UMI read abundance (log10)” value is reported as 0.202.
With “GGTTAGACATGGACCGGTTTTCCCGGTAATCCGTATTTGAG (site GGTTAGACTCT)” the “recombinant UMI read abundance (log10)” value was 1.12.
For “GGTTAGACATGGACCGGTTTTCCCGGTAATCCGTATTTGAG (site TGTTAGACTCT)”, the “recombinant UMI read abundance (log10)” value was 0.194.
In the case of “GGTTGGACATGGACCGGTTTTCCCGGTAATCCGTATTTGAC (site GATTGGACTGT)”, the “recombinant UMI read abundance (log10)” value is reported as 0.
With “GGTTGGACATGGACCGGTTTTCCCGGTAATCCGTATTTGAC (site GCTTGGACTGT)” the “recombinant UMI read abundance (log10)” value was 0.
With “GGTTGGACATGGACCGGTTTTCCCGGTAATCCGTATTTGAC (site GGTTGGACTGT)” the “recombinant UMI read abundance (log10)” value was 1.49.
With “GGTTGGACATGGACCGGTTTTCCCGGTAATCCGTATTTGAC (site GTTTGGACTGT)” the “recombinant UMI read abundance (log10)” value was 0.
For “GGTTTATCATGGACCGGTTTTCCCGGTAATCCGTATTTGAC (site GGTTTATCTGT)”, the “recombinant UMI read abundance (log10)” value was 0.699.
For “GTAAACCCATGGACCGGTTTTCCCGGTAATCCGTATTTGAT (site GTAAACCCTAT)”, the “recombinant UMI read abundance (log10)” value was 1.45.
For “GTAAGATCATGGACCGGTTTTCCCGGTAATCCGTATTTGGC (site GTAAGATCTGC)”, the “recombinant UMI read abundance (log10)” value was 2.74.
With “GTAAGCACATGGACCGGTTTTCCCGGTAATCCGTATTTGTA (site GTAAGCACTTA)” the “recombinant UMI read abundance (log10)” value was 2.03.
With “GTAAGCACATGGACCGGTTTTCCCGGTAATCCGTATTTGTA (site GTACGCACTTA)” the “recombinant UMI read abundance (log10)” value was 0.0491.
For “GTAAGCACATGGACCGGTTTTCCCGGTAATCCGTATTTGTA (site GTAGGCACTTA)”, the “recombinant UMI read abundance (log10)” value was 0.614.
For “GTAAGCACATGGACCGGTTTTCCCGGTAATCCGTATTTGTA (site GTATGCACTTA)”, the “recombinant UMI read abundance (log10)” value was 0.495.
In the case of “GTAAGGCCATGGACCGGTTTTCCCGGTAATCCGTATTTGAC (site ATAAGGCCTGT)”, the “recombinant UMI read abundance (log10)” value is reported as 0.
For “GTAAGGCCATGGACCGGTTTTCCCGGTAATCCGTATTTGAC (site CTAAGGCCTGT)”, the “recombinant UMI read abundance (log10)” value was 0.
For “GTAAGGCCATGGACCGGTTTTCCCGGTAATCCGTATTTGAC (site GTAAGGCCTGT)”, the “recombinant UMI read abundance (log10)” value was 0.
In the case of “GTAAGGCCATGGACCGGTTTTCCCGGTAATCCGTATTTGAC (site TTAAGGCCTGT)”, the “recombinant UMI read abundance (log10)” value is reported as 0.
With “GTAATCTCATGGACCGGTTTTCCCGGTAATCCGTATTTGAC (site GTAATCTCTGT)” the “recombinant UMI read abundance (log10)” value was 2.51.
With “GTAATTGCATGGACCGGTTTTCCCGGTAATCCGTATTTGTA (site GTAATTGCTTA)” the “recombinant UMI read abundance (log10)” value was 2.57.
With “GTACAGTCATGGACCGGTTTTCCCGGTAATCCGTATTTGAT (site GTACAGTCTAT)” the “recombinant UMI read abundance (log10)” value was 2.73.
With “GTACGAGCATGGACCGGTTTTCCCGGTAATCCGTATTTGTG (site GTACGAGCTCA)” the “recombinant UMI read abundance (log10)” value was 1.39.
With “GTACTATCATGGACCGGTTTTCCCGGTAATCCGTATTTGGC (site GTACTATCTGC)” the “recombinant UMI read abundance (log10)” value was 3.19.
For “GTACTTCCATGGACCGGTTTTCCCGGTAATCCGTATTTGTC (site GTACTTCCTGA)”, the “recombinant UMI read abundance (log10)” value was 1.93.
For “GTAGAACCATGGACCGGTTTTCCCGGTAATCCGTATTTGCA (site GTAGAACCTTG)”, the “recombinant UMI read abundance (log10)” value was 0.
With “GTAGAGGCATGGACCGGTTTTCCCGGTAATCCGTATTTGTG (site GTAGAGGCTCA)” the “recombinant UMI read abundance (log10)” value was 1.58.
With “GTAGAGGCATGGACCGGTTTTCCCGGTAATCCGTATTTGTG (site GTCGAGGCTCA)” the “recombinant UMI read abundance (log10)” value was 0.361.
For “GTAGAGGCATGGACCGGTTTTCCCGGTAATCCGTATTTGTG (site GTGGAGGCTCA)”, the “recombinant UMI read abundance (log10)” value was 0.704.
With “GTAGAGGCATGGACCGGTTTTCCCGGTAATCCGTATTTGTG (site GTTGAGGCTCA)” the “recombinant UMI read abundance (log10)” value was 0.247.
In the case of “GTAGCAACATGGACCGGTTTTCCCGGTAATCCGTATTTGTA (site GTAGCAACTTA)”, the “recombinant UMI read abundance (log10)” value is reported as 2.18.
In the case of “GTAGGCTCATGGACCGGTTTTCCCGGTAATCCGTATTTGTG (site GTAGGCTCTCA)”, the “recombinant UMI read abundance (log10)” value is reported as 1.4.
In the case of “GTAGGGGCATGGACCGGTTTTCCCGGTAATCCGTATTTGAA (site GTAGGGGCTTT)”, the “recombinant UMI read abundance (log10)” value is reported as 1.18.
For “GTAGTCCCATGGACCGGTTTTCCCGGTAATCCGTATTTGCG (site GTAGTCACTCG)”, the “recombinant UMI read abundance (log10)” value was 0.251.
With “GTAGTCCCATGGACCGGTTTTCCCGGTAATCCGTATTTGCG (site GTAGTCCCTCG)” the “recombinant UMI read abundance (log10)” value was 0.791.
In the case of “GTAGTCCCATGGACCGGTTTTCCCGGTAATCCGTATTTGCG (site GTAGTCGCTCG)”, the “recombinant UMI read abundance (log10)” value is reported as 0.16.
In the case of “GTAGTCCCATGGACCGGTTTTCCCGGTAATCCGTATTTGCG (site GTAGTCTCTCG)”, the “recombinant UMI read abundance (log10)” value is reported as 2.33.
